Counter-ions that a name gives are not always drawn. Like-named read-outs stand apart in the source and are kept apart here.
Columns and labels:
[1] = Tissue distribution in rats; format: in vivo; conditions: bolus iv injection
Experimental: (§1) Male Sprague Dawley rats (300-500 g, Taconic), and male New Zealand rabbits (3-4 kg, Covance) were used in accordance with our Institutional Animal Care and Use Committee. Rats were anesthetized with sodium pentobarbital (50 mg/kg, i.p.) and the left femoral vein cannulated with PESO tubing for drug injection. Rabbits were pre-sedated with acepromazine (0.75 mg/kg i.m.) then anesthetized with ketamine (40 mg/kg, i.m.) and xylazine (8 mg/kg, i.m); the marginal ear vein was cannulated for drug injection. Additional doses of anesthetics were given as needed.
(§2) After preparation, each animal received a bolus injection of the test agent via the venous catheter. Rats and rabbits were euthanized after the injection and samples of the blood, heart, lung, liver, spleen, kidney, femur and muscle were collected. All samples were weighed and counted for radioactivity (Wallac Wizard 1480, PerkinElmer Life and Analytical Sciences, Shelton, Conn.); net radioactivity administered in each animal was determined by subtracting the residual activity in both the syringe and venous catheter. Tissue uptake of each agent was determined as a percentage of the injected dose per gram tissue (% ID/g).

PC-12 cells = assay: PC-12 binding assay (cell uptake with or without desipramine); format: cell-based, rat; conditions: 0.1 μCi test agent, 60 min at 37° C.; for PC-12 (% bound) Block: with 1 μM desipramine (nonspecific uptake); for PC-12 (% bound) Control: without desipramine (total uptake)
Experimental: Rat pheochromocytoma cell line (PC-12) were purchased from the American Type Culture Collection (ATCC) then cultured in collagen-coated flasks (BD Bio Coat Collagen Type 1, BD Biosciences) using a growth media composed of F-12 K media, 2 mM L-glutamine, 15% horse serum, 2.5% fetal bovine serum (FBS) and 1% penicillin-streptomycin.
Prepared PC-12 cells were seeded into 6-well plates at a density of 1×10^6 cells/well with 2 mL of growth media and maintained 24 h at 37° C. under a 5% CO2 atmosphere. The media was exchanged and each well treated with 0.1 μCi test agent, with or without 1 μM desipramine. The resulting mixture was incubated for 60 min at 37° C. and 5% CO2 then centrifuged at 500×g for 3 min and washed with PBS buffer. Radioactivity associated with the cells was then measured, and total uptake determined in the wells without desipramine; nonspecific uptake was measured in the associated wells containing desipramine. The specific NET mediated cell uptake is calculated as percent total uptake minus percent nonspecific uptake.

[2] = target: T1, human norepinephrine transporter (Homo sapiens, UniProt P23975); assay: Norepinephrine transporter binding assay ([3H]desipramine competition, MDCK cell membranes); conditions: competition with [3H]desipramine 2 nM, 2 h on ice; read-out: NET Affinity
T1 construct: expressed in transfected cells; host or cells: MDCK cells (membrane preparation)
Experimental: Individual inhibitors were dissolved in incubation buffer (50 mM Tris-HCl, 10% sucrose, pH 7.4) at appropriate dilutions. The inhibitor solutions were added to the wells of a microtiter plate (40 μL/well) in triplicate. Each well of test agent (and appropriate control wells) was treated with a mixture of MDCK cell membrane preparation (22.4 μg of membrane) expressing human norepinephrine transporter (Bmax=3.7 pmol norepinephrine transporter/mg protein), and [^3H]desipramine (2 nM, 64.8 Ci/mmol) in a total volume of 0.2 mL. The resulting mixtures were incubated for 2 h on ice.
A 96 well GF/C filter plate was presoaked with coating buffer (0.5% polyvinylpyrrolidine and 0.1% Tween 20) for 2 h at room temperature, then washed with incubation buffer (6×0.2 mL). The competition reactions were transferred to the coated plate and filtered. The filter plate was washed (6×0.2 mL) with ice cold wash buffer (50 mM Tris-HCl, 0.9% NaCl, pH 7.4) then dried overnight and treated with 25 μL scintillation fluid for analysis on a plate reader (Microbeta TriLux 1450 LSC and Luminescence counter, Perkin Elmer, Shelton Conn.).

[3] = tested on: SK-N-SH cells with expression of NAT; assay: Cell uptake comparison in SK-N-SH cells with or without desipramine; format: cell-based, human; conditions: for inhibition of cell uptake by blockade of NAT with desipramine: SK-N-SH cells, desipramine 1 μM
Experimental: Imaging Agent-1 cell uptake in comparison with ^3H-NA and ^123I-MIBG was assayed in human neuroblastoma cells (SK-N-SH, ATCC) with expression of NAT (Buck et al., Cancer Res. 1985; 45(12 Pt 1):6366-70). Cells were prepared in 6-well plates at a density of 1×10^6 cells/well in 2 mL media. Imaging Agent-1, ^3H-NA or ^123I-MIBG at 3.7 kBq was added to each well with or without desipramine (1 μM), a selective NAT inhibitor. In assay with NA, pargyline (10 μM) was included to inhibit monoamine oxidase activity. Following incubation for 60 minutes at 37° C., cells were washed twice with ice-cold phosphate-buffered saline, trypsinized and centrifuged at 1000 g for 3 minutes to collect cell pellet. Radioactivity associated with the cells was measured with a γ-(Wallac Wizard 1480, PerkinElmer) or β-counter (Microbeta TriLux 1450 LSC, PerkinElmer). Each assay was performed in triplicate and the uptake was expressed as a percent of total radioactivity added to the well.

[4] = tested on: noradrenaline transporter (NAT) in SK-N-SH cells; assay: Competitive inhibition of Imaging Agent-1 uptake in SK-N-SH cells; format: cell-based, human; conditions: non-radioactive competitor 0.1-100 μM, 37° C., 60 minutes, read-out: IC50 for inhibition of Imaging Agent-1 cell uptake
Experimental: For the competitive inhibition assay, Imaging Agent-1 at 3.7 kBq was incubated in SK-N-SH cells with various concentrations (0.1, 1, 10, or 100 μM) of non-radioactive NA, MIBG or ^19F-Imaging Agent-1 (self) at 37° C. for 60 minutes. Similarly, following the incubation, Imaging Agent-1 cell uptake was determined. The IC50 value of each agent was determined using GraphPad software (v5).

[5] = Tissue distribution in rabbits; format: in vivo; conditions: bolus iv injection
Experimental: as §1, §2

T1 sequence (P23975 whole entry): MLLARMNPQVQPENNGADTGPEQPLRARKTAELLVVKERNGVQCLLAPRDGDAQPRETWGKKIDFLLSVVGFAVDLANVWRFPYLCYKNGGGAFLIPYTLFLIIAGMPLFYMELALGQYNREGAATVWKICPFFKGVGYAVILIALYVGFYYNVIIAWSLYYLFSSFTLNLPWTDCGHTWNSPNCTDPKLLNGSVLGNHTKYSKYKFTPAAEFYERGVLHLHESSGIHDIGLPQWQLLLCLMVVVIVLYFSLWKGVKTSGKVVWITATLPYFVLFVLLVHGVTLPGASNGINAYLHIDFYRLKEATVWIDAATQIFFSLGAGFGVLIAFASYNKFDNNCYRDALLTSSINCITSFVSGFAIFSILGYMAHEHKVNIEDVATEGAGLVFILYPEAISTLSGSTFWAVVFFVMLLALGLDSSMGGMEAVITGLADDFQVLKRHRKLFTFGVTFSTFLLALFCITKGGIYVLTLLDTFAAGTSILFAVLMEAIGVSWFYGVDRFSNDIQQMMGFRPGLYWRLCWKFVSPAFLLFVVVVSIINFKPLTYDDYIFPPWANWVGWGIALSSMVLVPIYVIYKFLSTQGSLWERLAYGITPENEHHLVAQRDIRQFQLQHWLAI

Compound | Rat Blood [1] [% ID/g] | Rat Heart [1] [% ID/g] | Rat Liver [1] [% ID/g] | Rat Lung [1] [% ID/g] | PC-12 (% bound) Block (PC-12 cells) [% bound] | PC-12 (% bound) Control (PC-12 cells) [% bound] | Ki [2] [µM] | inhibition of cell uptake by blockade of NAT with desipramine [3] [%] | IC50 [4] [µM] | Rabbit Blood [5] [% ID/g] | Rabbit Heart [5] [% ID/g] | Rabbit Liver [5] [% ID/g] | Rabbit Lung [5] [% ID/g] | IC50 ([4]; Homo sapiens, 1 h) [µM] | uptake in SK-N-SH cells (percent of total radioactivity added) ([3]; 3.7 kBq, 60 minutes at 37° C., without desipramine) [%]
N=C(N)NCc1ccc(CCF)c(Br)c1 [Example 8, 1-(3-bromo-4-(2-fluoroethyl)benzyl)guanidine] | 0.21 | 1.61 | 0.27 | 0.94 | 0.60 | 1.30 | 17.4 | – | – | – | – | – | – | – | –
N=C1NCC(c2ccc(OCCF)c(Br)c2)N1 (centres unmarked) [Example 2, 4-(3-bromo-4-(2-fluoroethoxy)phenyl)imidazolidin-2-imine, hydrochloric acid salt] | 0.19 | 1.33 | 0.25 | 0.94 | 0.60 | 3.20 | 11.2 | – | – | – | – | – | – | – | –
N=C(N)NCc1cccc([123I])c1 [^123I-MIBG, ^123I-meta-iodobenzylguanidine, reference compound] | – | – | – | – | – | – | – | 94±2 | – | – | – | – | – | – | –
N=C(N)NCc1cccc(I)c1 [MIBG, meta-iodobenzylguanidine] | – | – | – | – | – | – | – | – | 0.21 | – | – | – | – | – | –
N=C(N)NCc1ccc(CF)c(Br)c1 [Example 3, 1-(3-bromo-4-(fluoromethyl)benzyl)guanidine] | 0.35 ± 0.15 | 0.71 ± 0.24 | 0.15 ± 0.03 | 1.12 ± 0.29 | 2.36 | 32.76 | 7.35 | – | – | 0.01 | 0.29 | 0.02 | 0.39 | – | –
NC[C@H](O)c1ccc(O)c(O)c1 [NA, noradrenaline] | – | – | – | – | – | – | – | – | – | – | – | – | – | 1.09 | –
N=C(N)NCc1ccc2cc(OCCCF)ccc2c1 [Example 12, 1-((6-(3-fluoropropoxy)naphthalen-2-yl)methyl)guanidine] | 0.37 ± 0.05 | 1.93 ± 0.11 | 0.18 ± 0.01 | 2.09 ± 0.08 | 0.50 | 5.30 | 0.14 | – | – | 0.04 ± 0.02 | 0.29 ± 0.09 | 0.02 ± 0.01 | 0.28 ± 0.17 | – | –
N=C(N)NCCc1ccc(CCCF)cc1 [Example 33, 1-(4-(3-fluoropropyl)phenethyl)guanidine] | 0.10 ± 0.01 | 1.94 ± 0.16 | 0.21 ± 0.04 | 0.66 ± 0.11 | 1.50 | 2.30 | 3.95 | – | – | – | – | – | – | – | –
N=C(N)NCc1ccc2cc(OCCF)ccc2c1 [Example 11, 1-((6-(2-fluoroethoxy)naphthalen-2-yl)methyl)guanidine] | 0.51 ± 0.11 | 1.74 ± 0.27 | 0.61 ± 0.40 | 2.71 ± 0.51 | 2.70 | 23.90 | 0.12 | – | – | 0.04 ± 0.01 | 0.39 ± 0.02 | 0.02 ± 0.00 | 0.39 ± 0.11 | – | –
N=C(N)NCc1ccc(COCCF)c(Br)c1 [Example 4, 1-(3-bromo-4-((2-fluoroethoxy)methyl)benzyl)guanidine] | 0.13 ± 0.02 | 1.04 ± 0.95 | 0.37 ± 0.24 | 0.34 ± 0.18 | 0.50 | 1.00 | 5.41 | – | – | 0.014 | 0.025 | 0.012 | 0.031 | – | –
N=C(N)NCCc1c[nH]c2ccc(OCCF)cc12 [Example 21, 1-(2-(5-(2-fluoroethoxy)-1H-indol-3-yl)ethyl)guanidine] | 0.41 | 0.35 | 1.01 | 0.38 | 0.10 | 0.10 | 1.19 | – | – | – | – | – | – | – | –
N=C(N)NCc1ccc(CCF)cc1 [Example 5, 1-[4-(2-fluoroethyl)benzyl]guanidine] | 0.69 | 1.23 | 0.26 | 0.59 | 0.90 | 1.00 | 18.7 | – | – | – | – | – | – | – | –
^3H-noradrenaline [^3H-NA, reference compound] | – | – | – | – | – | – | – | 97±2 | – | – | – | – | – | – | –
N=C1NCC(c2ccc(OCCF)cc2)N1 (centres unmarked) [Example 1, 4-(4-(2-fluoroethoxy)phenyl)imidazolidin-2-imine] | 0.18 | 1.03 | 0.15 | 0.24 | 0.30 | 3.1 | 7.27 | – | – | – | – | – | – | – | –
N=C(N)NCc1ccc(OCCC[18F])c(Br)c1 [Imaging Agent-1] | – | – | – | – | – | – | – | 90±3 | – | – | – | – | – | – | 24.6±9

From US9550000B2, “Compositions, methods, and systems for the synthesis and use of imaging agents” (Lantheus Medical Imaging, Inc., priority 2011, dated 2017)
